# Data as given in ChEMBL document CHEMBL2218064, “Structure-activity relationship data for chemical series of antagonists of the P2X7 receptor (Supplementary Bioactivity Data for publication CHEMBL1157114)”.
# Biological target: T1, P2X purinoceptor 7 (Homo sapiens, UniProt Q99572)
# T1 sequence (Q99572 whole entry): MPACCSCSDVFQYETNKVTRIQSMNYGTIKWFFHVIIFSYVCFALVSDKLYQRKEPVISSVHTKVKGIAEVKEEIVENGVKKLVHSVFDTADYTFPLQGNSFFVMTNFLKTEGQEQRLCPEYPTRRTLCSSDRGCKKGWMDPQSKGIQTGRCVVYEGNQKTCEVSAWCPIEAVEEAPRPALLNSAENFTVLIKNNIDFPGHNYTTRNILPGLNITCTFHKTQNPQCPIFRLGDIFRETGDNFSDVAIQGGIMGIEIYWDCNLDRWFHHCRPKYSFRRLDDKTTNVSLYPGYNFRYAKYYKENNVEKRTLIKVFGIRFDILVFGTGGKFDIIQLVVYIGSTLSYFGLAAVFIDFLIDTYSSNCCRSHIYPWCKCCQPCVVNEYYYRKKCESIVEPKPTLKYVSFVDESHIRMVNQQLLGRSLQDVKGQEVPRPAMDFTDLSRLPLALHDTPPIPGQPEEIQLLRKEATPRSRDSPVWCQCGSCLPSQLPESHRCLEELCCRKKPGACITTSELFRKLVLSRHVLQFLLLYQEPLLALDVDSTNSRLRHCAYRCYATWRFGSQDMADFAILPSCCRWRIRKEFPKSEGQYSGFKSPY
# Test: SUPPLEMENTARY: Inhibition of human P2X7 receptor assessed as inhibition of ethidium bromide accumulation. Same assay as CHEMBL1103860
row,SMILES,IC50 [nM]
1,O=C(c1cccc(C(F)(F)F)c1Cl)N1CCn2c(-c3ccc(Cl)cc3)cnc2C1,251
2,CN1C(=O)N(c2ccnc(F)c2)C[C@H]1C(=O)NCc1cccc(C(F)(F)F)c1Cl,63.1
3,O=C(NCc1cccc(C(F)(F)F)c1Cl)[C@@H]1CCC(=O)N1C1CCC1,2
4,Cc1nn(C2CCOCC2)c(C)c1CC(=O)NCc1ccc(F)cc1Cl,1260
5,O=C(c1cccc(Cl)c1Cl)N1CCN(c2cccc(Cl)c2)C(=O)C1,100
6,CN1C(=O)N(c2ncccn2)C[C@H]1C(=O)NCc1ccc(F)cc1Cl,25.1
7,Cc1ccccc1N1CCN(C(=O)c2ccc(F)cc2Cl)CC1=O,501
8,CCN(CC)c1ccc(N2CCN(Cc3ccc(F)cc3Cl)C(=O)C2=O)c(C)c1,12.6
9,Cc1c(Cl)cccc1CNC(=O)[C@@H]1CCC(=O)N1C1CCC1,15.8
10,Cc1c(Cl)cccc1CNC(=O)[C@@H]1CN(c2ncccn2)C(=O)N1C,7.94
11,O=C(NCc1ccc(Cl)cc1Cl)C1CCC(=O)N1C1CC1 (stereo not given),3.16
12,Cc1cc(-c2nnc3n2CCN(C(=O)c2cccc(C(F)(F)F)c2Cl)C3)no1,12.6
13,Cc1nn(-c2ccccc2)c(C)c1CC(=O)NCc1ccc(F)c(C(F)(F)F)c1,316
14,O=C(c1cccc(Cl)c1Cl)N1CCn2c(nnc2-c2ccc(F)cc2F)C1,12.6
15,CN1C(=O)c2ccccc2C1C(=O)NCc1cccc(C(F)(F)F)c1Cl (stereo not given),15.8
16,CN1[C@H](C(=O)NCc2ccc(F)c(F)c2Cl)CCS1(=O)=O,79.4
17,CC(C)N1CCN(C(=O)c2cccc(C(F)(F)F)c2Cl)CC1=O,100
18,O=C(c1cccc(Cl)c1Cl)N1CCN(c2ccc(F)cc2F)C(=O)C1,126
19,O=C(c1cccc(C(F)(F)F)c1Cl)N1CCN(c2ccc(F)cc2)C(=O)C1,25.1
20,CCN1C(=O)CC[C@H]1C(=O)NCc1c(F)cccc1Cl,1000
21,O=C(c1cccc(C(F)(F)F)c1Cl)N1CCn2c(nnc2N2CCOCC2)C1,251
22,CN1C(=O)N(c2cccnc2Cl)C[C@H]1C(=O)NCc1cccc(C(F)(F)F)c1Cl,1.58
23,COc1ccccc1N1CCN(Cc2ccc(F)cc2Cl)C(=O)C1=O,50.1
24,Cc1ccc(N2C[C@@H](C(=O)NCc3ccc(F)cc3Cl)N(C)C2=O)cn1,63.1

row,SMILES,IC50 [nM]
1,Cc1ccccc1N1CCN(Cc2ccc(F)cc2Cl)C(=O)C1=O,50.1
2,CN1C(=O)CC[C@H]1C(=O)NCc1ccc(F)c(F)c1Cl,39.8
3,Cc1ccc(-n2nc(C)c(CC(=O)NCc3ccc(F)cc3Cl)c2C)nn1,631
4,CCN1C(=O)CC[C@H]1C(=O)NCc1ccc(Cl)c(C(F)(F)F)c1,79.4
5,Cc1cccnc1N1C[C@@H](C(=O)NCc2ccc(Cl)cc2Cl)N(C)C1=O,15.8
6,O=C(c1cccc(C(F)(F)F)c1Cl)N1CCn2c(-c3ccccc3)cnc2C1,6.31
7,CCN1C(=O)C(C)(C)CC1C(=O)NCc1ccc(Cl)cc1Cl (stereo not given),25.1
8,O=C1C(=O)N(c2cncc3ccccc23)CCN1Cc1ccc(F)cc1Cl,158
9,Cc1nc[nH]c1CN1C[C@@H](C(=O)NCc2ccc(F)c(F)c2Cl)N(C)C1=O,200
10,Cc1ccc(N2CCN(Cc3ccc(F)cc3Cl)C(=O)C2=O)c(C)c1,79.4
11,O=C1C(=O)N(c2cc(F)ccc2F)CCN1Cc1ccc(F)cc1Cl,158
12,O=C1C(=O)N(c2ccccc2Cl)CCN1Cc1ccc(F)cc1Cl,20
13,Cc1nn(-c2ccccc2)c(C)c1CC(=O)NCc1cccc(Cl)c1C,31.6
14,Cc1ccc(C)c(CNC(=O)Cc2c(C)nn(-c3ccccc3)c2C)c1,794
15,CN(C)c1ccccc1N1CCN(Cc2ccc(F)cc2Cl)C(=O)C1=O,63.1
16,Cc1cccc(C)c1N1CCN(Cc2ccc(F)cc2Cl)C(=O)C1=O,3.16
17,O=C1C(=O)N(c2cccc(Cl)c2Cl)CCN1Cc1ccc(F)cc1Cl,100
18,Cc1nn(-c2ccccc2)c(C)c1CC(=O)NCc1c(F)cccc1Cl,316
19,CN1C(=O)NC[C@H]1C(=O)NCc1ccc(F)c(C(F)(F)F)c1,100
20,CN1C[C@@H](C(=O)NCc2ccc(F)cc2Cl)N(C)C1=O,10
21,Cc1nn(CC(C)(C)O)c(C)c1CC(=O)NCc1ccc(F)c(F)c1F,794
22,Cc1nn(CCN2CCOCC2)c(C)c1CC(=O)NCc1cccc(Cl)c1C,126
23,O=C(c1cccc(C(F)(F)F)c1Cl)N1CCn2c(nnc2-c2cccnc2)C1,6.31

# Further compounds by falling IC50, results first:
row,IC50 [nM],SMILES
1,1260,Cc1nn(CC(=O)O)c(C)c1CC(=O)NCc1ccc(F)cc1Cl
2,1000,Cc1ccccc1N1CCN(Cc2cc(Cl)ccc2Cl)C(=O)C1=O
3,794,Cc1nn(-c2ccc(C#N)cn2)c(C)c1CC(=O)NCc1ccc(F)cc1Cl
4,501,Cc1nn(C2CCCC2)c(C)c1CC(=O)NCc1ccc(F)cc1Cl
5,200,Cc1nn(-c2ncc(Cl)cc2Cl)c(C)c1CC(=O)NCc1ccc(F)cc1Cl
6,200,CCN1C(=O)CC[C@H]1C(=O)NCc1ccc(C(F)(F)F)cc1
7,200,CN1C(=O)CCC1(C)C(=O)NCc1ccc(Cl)cc1Cl (stereo not given)
8,158,CC(C)CN1[C@H](C(=O)NCc2ccc(Cl)cc2Cl)CCS1(=O)=O
9,158,Cc1nn(CC(C)(C)O)c(C)c1CC(=O)NCc1cccc(Cl)c1C
10,158,O=C(c1cccc(C(F)(F)F)c1Cl)N1CCN(C2CCCC2)C(=O)C1
11,100,Cc1c(Cl)cccc1CNC(=O)[C@@H]1CCS(=O)(=O)N1C
12,100,COc1ccc(F)cc1N1CCN(Cc2ccc(F)cc2Cl)C(=O)C1=O
13,100,O=C(c1ccc(F)cc1Cl)N1CCn2c(nnc2-c2cccc(Cl)c2Cl)C1
14,79.4,CN1C(=O)N(CCN2CCOCC2)CC1C(=O)NCc1ccc(Cl)cc1Cl (stereo not given)
15,79.4,O=C1CN(C(=O)c2cccc(C(F)(F)F)c2Cl)CCN1CC1CCCO1 (stereo not given)
16,79.4,CN1C(=O)N(Cc2ccccn2)CC1C(=O)NCc1ccc(F)c(F)c1Cl (stereo not given)
17,79.4,CCN1C(=O)c2ccccc2C1C(=O)NCc1cccc(C(F)(F)F)c1Cl (stereo not given)

row,IC50 [nM],SMILES
1,79.4,Cc1nn(-c2ncccn2)c(C)c1CC(=O)NCc1ccc(F)c(F)c1F
2,63.1,O=C1C(=O)N(c2cccc3ccccc23)CCN1Cc1ccc(F)cc1Cl
3,63.1,O=C(NCc1cccc(C(F)(F)F)c1Cl)[C@H]1CCC(=O)N1Cc1ccccn1
4,50.1,CCN1C(=O)C(C)(C)C[C@H]1C(=O)NCc1ccc(F)cc1Cl
5,39.8,Cc1ccc(Br)cc1N1CCN(C(=O)c2cccc(C(F)(F)F)c2Cl)CC1=O
6,39.8,Cc1ccccc1N1CCN(Cc2cccc(C(F)(F)F)c2Cl)C(=O)C1=O
7,31.6,Cc1cccc(C(=O)N2CCN(c3ccc(F)cc3Cl)C(=O)C2)c1Cl
8,31.6,O=C(c1cccc(Cl)c1Cl)N1CCN(c2ccc(F)cc2Cl)C(=O)C1
9,31.6,Cc1cc(N2C[C@@H](C(=O)NCc3ccc(F)c(F)c3Cl)N(C)C2=O)ccn1
10,25.1,Cc1cc(-c2nnc3n2CCN(C(=O)c2cccc(Cl)c2Cl)C3)no1
11,25.1,O=C(c1cccc(C(F)(F)F)c1Cl)N1CCn2c(nnc2C2CCCC2)C1
12,12.6,O=C1C(=O)N(c2ccccc2Br)CCN1Cc1ccc(F)cc1Cl
13,7.94,Cc1cc(Cl)ccc1CNC(=O)[C@@H]1CN(C)C(=O)N1C
14,3.98,O=C(c1ccc(F)cc1Cl)N1CCn2c(-c3cnccn3)cnc2C1
15,3.16,CCN1C(=O)CC[C@H]1C(=O)NCc1ccc(F)c(Cl)c1Cl
16,1.26,Cc1cc(Cl)cc(Cl)c1CNC(=O)[C@@H]1CNC(=O)N1C
